Experimental data reported in patent US10995363B2, “Nucleotide analogs” (ABBOTT MOLECULAR INC., priority 2013, dated 2021).

Key:
[1] = molecular target: T1, Therminator II DNA polymerase (Thermococcus sp., UniProt Q56366, A485L/D141A/E143A/Y409V); assay: Ladder fragment generation with natural dNTPs and one 3′-O-propargyl-dNTP; format: biochemical, Thermococcus sp. 9∘N; conditions: natural dNTPs plus one 3′-O-propargyl-dNTP, KRAS template, 50 cycles
T1 construct: purchased New England BioLabs
Description: During the development of embodiments of the technology provided herein, experiments were conducted to assess using the nucleotide analogs of the present technology to generate nucleic acid fragments that terminate at base-specific positions. In particular, reaction mixtures were produced and tested that included both natural dNTPs and each of the 3′-O-propargyl-dNTPs individually.
To test the fragment generation by 3′-O-propargyl-dTTP, a DNA fragment generation reaction mix was prepared comprising 20 mM Tris-HCl, 10 mM (NH4)SO4, 10 mM KCl, 2 mM MnCl2, 0.1% Triton X-100, 1000 μmol dATP, 1000 μmol dCTP, 1000 μmol dGTP, 1000 μmol dTTP, 200 μmol 3′-O-propargyl-dTTP, 6.25 μmol of primer R_ke2_trP1_T_bio (SEQ ID NO: 2), and 2 units of THERMINATOR II DNA polymerase (New England BioLabs) in a 25-μl final reaction volume. A volume of 0.5 μmol of the KRAS template (SEQ ID NO: 1) was used as template. The polymerase extension reaction was performed using a temperature cycling profile comprising exposing the reaction to a temperature of 95° C. for 2 minutes followed by 50 cycles of 95° C. for 15 seconds, 55° C. for 25 seconds, and 65° C. for 35 seconds.
(§1) After the polymerase extension reaction, 1 μl of the reaction mix was used directly for nucleic acid size analysis by gel electrophoresis (e.g., using an Agilent 2100 Bioanalyzer and High Sensitivity DNA Assay Chip).
Additional polymerase extension experiments were performed using the reaction conditions described above and replacing the 3′-O-propargyl-dTTP with 3′-O-propargyl-dATP, 3′-O-propargyl-dCTP, or 3′-O-propargyl dGTP.

[2] = molecular target: T1, Therminator II DNA polymerase; assay: Polymerase extension assay: incorporation of 3′-O-propargyl-dNTP at the 3′ end of a primer on KRAS template; format: biochemical, Thermococcus sp. 9∘N; conditions: 2 mM MnCl2, KRAS template, 35 cycles, size analysis by gel electrophoresis
Description: During the development of embodiments of the technology provided herein, experiments were conducted to assess the incorporation of 3′-O-propargyl-dNTPs into a nucleic acid by a polymerase. In particular, experiments were conducted to evaluate the accurate incorporation of 3′-O-propargyl-dNTPs into a nucleic acid and to evaluate the terminating activity of the 3′-O-propargyl-dNTPs. To assess these characteristics of the nucleotide analogs provided herein, polymerase extension assays were conducted using a template nucleic acid having a sequence from human KRAS (e.g., KRAS exon 2 and flanking intron sequences) and a complementary primer (Table 2).
To test incorporation of a 3′-O-propargyl-dTTP into a nucleic acid, a polymerase extension reaction mix was assembled comprising 20 mM Tris-HCl, 10 mM (NH4)SO4, 10 mM KCl, 2 mM MnCl2, 0.1% Triton X-100, 200 μmol 3′-O-propargyl-dTTP, 6.25 μmol of primer R_ke2_trP1_T_bio (SEQ ID NO: 2), and 2 units of Therminator II DNA polymerase (New England BioLabs) in a 25-μl final reaction volume. A volume of 0.5 μmol of the KRAS template (SEQ ID NO: 1) was used as template (Table 2). The polymerase extension reaction was performed using a temperature cycling profile comprising exposing the reaction to a temperature of 95° C. for 2 minutes followed by 35 cycles of 95° C. for 15 seconds, 55° C. for 25 seconds, and 65° C. for 35 seconds.
as §1
Additional polymerase extension experiments were performed using the reaction conditions described above and replacing the 3′-O-propargyl-dTTP and the primer R_ke2_trP1_T_bio with 3′-O-propargyl-dATP and the primer R_ke2_trP1_A bio (SEQ ID NO: 3); 3′-O-propargyl-dCTP and the primer R_ke2_trP1_C bio (SEQ ID NO: 5); and 3′-O-propargyl dGTP and the primer R_ke2_trP1_G bio (SEQ ID NO: 4).

T1 sequence (Q56366 whole entry D141A/E143A/Y409V/A485L, the tested form may be a part): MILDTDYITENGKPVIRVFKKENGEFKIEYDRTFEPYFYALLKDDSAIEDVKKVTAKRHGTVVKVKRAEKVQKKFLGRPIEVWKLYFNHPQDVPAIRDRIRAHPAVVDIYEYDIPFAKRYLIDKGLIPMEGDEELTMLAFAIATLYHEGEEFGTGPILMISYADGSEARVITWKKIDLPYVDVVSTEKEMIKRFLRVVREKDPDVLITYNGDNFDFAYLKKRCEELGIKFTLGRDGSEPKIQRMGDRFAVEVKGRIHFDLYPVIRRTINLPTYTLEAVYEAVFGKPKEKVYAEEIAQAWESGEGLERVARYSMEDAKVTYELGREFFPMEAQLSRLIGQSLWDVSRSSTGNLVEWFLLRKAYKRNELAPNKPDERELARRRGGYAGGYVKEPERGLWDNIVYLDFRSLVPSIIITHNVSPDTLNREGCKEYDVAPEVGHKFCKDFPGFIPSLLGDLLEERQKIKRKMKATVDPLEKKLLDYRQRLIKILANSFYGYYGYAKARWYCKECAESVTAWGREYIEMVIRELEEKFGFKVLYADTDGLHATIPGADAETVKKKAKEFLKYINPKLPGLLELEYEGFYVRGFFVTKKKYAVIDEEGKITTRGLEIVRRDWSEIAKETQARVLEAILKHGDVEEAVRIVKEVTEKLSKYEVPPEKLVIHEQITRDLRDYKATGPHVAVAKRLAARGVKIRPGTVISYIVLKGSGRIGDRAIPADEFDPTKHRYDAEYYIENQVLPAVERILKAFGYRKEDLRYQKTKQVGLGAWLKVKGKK

| SMILES | generation of nucleic acid fragments terminated at base-specific positions [1] | incorporation at the 3′ end of the primer [2] |
| --- | --- | --- |
| C#CCO[C@H]1C[C@H](n2cnc3c(=O)[nH]c(N)nc32)O[C@@H]1COP(=O)(O)OP(=O)(O)OP(=O)(O)O [3′-O-propargyl-dGTP, 3′-O-propargyl-2′-deoxyguanosine-5′-triphosphate] | generated populations of nucleic acid fragments having a range of sizes corresponding to the expected lengths | successful incorporation |
| C#CCO[C@H]1C[C@H](n2ccc(N)nc2=O)O[C@@H]1COP(=O)(O)OP(=O)(O)OP(=O)(O)O [3′-O-propargyl-dCTP, 3′-O-propargyl-2′-deoxycytidine-5′-triphosphate] | generated populations of nucleic acid fragments having a range of sizes corresponding to the expected lengths | successful incorporation |
